These results are taken from publication PMC8269692 (Biochemistry, 2021).

The target of this experiment is T1, human macrophage galactose-type lectin (hMGL) extracellular domain (Homo sapiens, UniProt Q8IUN9).
T1 sequence (Q8IUN9 with tags, fused parts or gaps isoform Q8IUN9-2): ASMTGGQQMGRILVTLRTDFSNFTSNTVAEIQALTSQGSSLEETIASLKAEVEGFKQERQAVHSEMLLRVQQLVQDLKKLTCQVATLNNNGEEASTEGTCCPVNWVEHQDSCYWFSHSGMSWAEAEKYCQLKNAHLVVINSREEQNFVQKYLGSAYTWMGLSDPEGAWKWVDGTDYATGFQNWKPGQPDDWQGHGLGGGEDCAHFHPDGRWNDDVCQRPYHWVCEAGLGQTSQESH
As to the kind of experiment: ITC titration of ligands into hMGL. It is filed as binding. Particulars: for KA: one-set-of-sites model.

Where [1] appears, read: ITC, buffered H2O (10 mM HEPES sodium salt, 50 mM NaCl, 2 mM CaCl2, pH 7.4), 25 °C.
Where [2] appears, read: ITC, buffered D2O (10 mM HEPES sodium salt, 50 mM NaCl, 2 mM CaCl2, pH 7.4), 25 °C.
[3] abbreviates: ITC, buffered D2O, pH 7.4, 25 °C.
Where [4] appears, read: ITC, buffered H2O, pH 7.4, 25 °C.
[5] abbreviates: deuterium isotope effect, DIE = H2O – D2O.

In general, Kd refers to the equilibrium constant for the complex coming apart. Turning to `CC(=O)N[C@H]1[C@@H](O[C@H](C)[C@H](N)C(=O)O)O[C@H](CO)[C@H](O)[C@@H]1O` [Thr-Tn], the equilibrium dissociation constant (Kd) under setting [1] lay within 16 to 17 µM.
Turning to `CC(=O)N[C@H]1C(O)O[C@H](CO)[C@H](O)[C@@H]1O` (stereo partly drawn) [GalNAc, N-acetyl-D-galactosamine], under setting [2], the equilibrium dissociation constant (Kd) was 7.25 µM and the KA is reported as 13.79 ×10^4 M^–1. Under setting [3], the “n (number of binding sites, stoichiometry)” value is given as 0.97; the ΔG result is recorded as “–7.01 kcal mol^–1”; the ΔH result is on record as “–6.81 kcal mol^–1”; the “Δ−(TΔS)” value is “–0.20 kcal mol^–1”. Further, under setting [1], the Kd is 17.7 µM and the KA is on record as 5.64 ×10^4 M^–1. For the same molecule, under setting [4], the ΔG entry is “–6.49 kcal mol^–1”, the ΔH result was “–11.30 kcal mol^–1” and the “Δ−(TΔS)” value was found to be 4.81 kcal mol^–1. Moreover, the “n (number of binding sites, stoichiometry)” value (ITC, buffered H2O, pH 7.4, 25 °C, n normalized to active cell concentration of the dissociating trimer) stood at 0.99. Further, under setting [5], the ΔΔG is given as 0.52 kcal mol^–1, the ΔΔH entry was “–4.49 kcal mol^–1” and the “Δ−(TΔS)” value turned out to be 5.01 kcal mol^–1. The molecule also gave a ΔΔH (deuterium isotope effect, DIE = H2O – D2O, listed as free glycan) of −4.49 kcal mol^–1.
With `CO[C@H]1O[C@H](CO)[C@H](O)[C@H](O)[C@H]1NC(C)=O` [α-Me-GalNAc, Methyl N-acetyl-α-D-galactosamine], the “affinity relative to β-anomer and GalNAcα1-O-Thr conjugate” value (ITC, buffered H2O, 25 °C) is on record as 2 fold.
Consider `CO[C@@H]1O[C@H](CO)[C@@H](O)[C@H](O)[C@H]1O` [methyl β-glucopyranoside], for which the “affinity for hMGL (result in words)” value (ITC, buffered H2O, 25 °C) was “no indication of a detectable affinity”.
